Reference: patent US12171230B2, “Herbicidal compositions” (Bayer Aktiengesellschaft, priority 2018, dated 2024)

How the values were obtained:
Type in all cases: in vivo
[1] = test system: Galium aparine; assay: Post-emergence herbicidal action against Galium aparine
Procedure, shortened: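 Seeds or rhizome pieces were grown in sandy loam in pots in a greenhouse, and plants were sprayed at the three-leaf stage, three weeks after sowing. Spray powders or emulsion concentrates were applied in various dosages at 300 to 800 l/ha water. Efficacy was scored visually after 3 to 4 weeks against untreated controls.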

[2] = test system: Viola tricolor; assay: Post-emergence herbicidal action against Viola tricolor
Excerpt: (§1) The following abbreviations are used in the description and the tables that follow: • g of a.i./ha=grams of active substance (active ingredient) (=100% active compound) per hectare; • The sum total of the effects of the individual applications is reported under E^A; • expected values according to Colby are each reported under E^C.
(§2) The rating period is reported in days after application (DAT).

[3] = test system: Lolium rigidum; assay: Post-emergence herbicidal action against Lolium rigidum
Procedure, shortened: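 Rates are given as grams of active ingredient (100% active compound) per hectare. E^A is the summed effect of the individual applications and E^C the expected value by Colby, with ratings timed in days after application (DAT).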

[4] = test system: Brachiaria plantaginea; assay: Post-emergence herbicidal action against Brachiaria plantaginea; details: (Z61) post-emergence; g of a.i./ha: 200, 100, 100 + 200
Excerpt: as §1, §2

[5] = test system: Digitaria horizontalis; assay: Post-emergence herbicidal action against Digitaria horizontalis; details: (Z61) post-emergence; g of a.i./ha: 200, 100, 100 + 200
Excerpt: as §1, §2

[6] = test system: Abutilon theophrasti; assay: Post-emergence herbicidal action against Abutilon theophrasti; details: 21 DAT
[7] = test system: Matricaria inodora; assay: Post-emergence herbicidal action against Matricaria inodora

O=C(Nc1ccc(F)cc1F)c1cccnc1Oc1cccc(C(F)(F)F)c1 [(B2.18) Diflufenican]
Herbicidal action 28 DAT against Galium aparine ([1]; 30 g of a.i./ha): 0%
Herbicidal action 28 DAT against Galium aparine ([1]; 90 g of a.i./ha): 20%
Herbicidal action 14 DAT against Galium aparine ([1]; (Z119) post-emergence, g of a.i./ha by row: 1, 30, 1 + 30): 30%
Herbicidal action 28 DAT against Galium aparine ([1]; (Z119) post-emergence, g of a.i./ha: 16, 4, 30, 16 + 30, 4 + 30): 0%
Herbicidal action 28 DAT against Viola tricolor ([2]; (Z61) post-emergence, g of a.i./ha: 16, 1, 30, 16 + 30, 1 + 30): 40%
Herbicidal action 14 DAT against Viola tricolor ([2]; (Z119) post-emergence, g of a.i./ha: 16, 270, 16 + 270): 40%
Herbicidal action 28 DAT against Lolium rigidum ([3]; 90 g of a.i./ha): 0%
Herbicidal action 28 DAT against Lolium rigidum ([3]; 270 g of a.i./ha): 0%
Herbicidal action 14 DAT against Lolium rigidum ([3]; (Z61) post-emergence, g of a.i./ha: 1, 270, 90, 30, 1 + 270, 1 + 90, 1 + 30, 30 g of a.i./ha): 0%
Herbicidal action 14 DAT against Lolium rigidum ([3]; (Z61) post-emergence, g of a.i./ha: 1, 270, 90, 30, 1 + 270, 1 + 90, 1 + 30, 270 g of a.i./ha): 10%
Herbicidal action 28 DAT against Lolium rigidum ([3]; (Z61) post-emergence, g of a.i./ha: 4, 1, 270, 90, 4 + 270, 4 + 90, 1 + 270, 1 + 90, 90 g of a.i./ha): 15%
Herbicidal action 28 DAT against Lolium rigidum ([3]; (Z61) post-emergence, g of a.i./ha: 4, 1, 270, 90, 4 + 270, 4 + 90, 1 + 270, 1 + 90, 270 g of a.i./ha): 20%
Herbicidal action 14 DAT against Lolium rigidum ([3]; (Z119) post-emergence, g of a.i./ha by row: 16, 1, 90, 270, 16 + 90, 1 + 270): 5%
Herbicidal action 28 DAT against Lolium rigidum ([3]; (Z119) post-emergence, g of a.i./ha: 16, 4, 1, 270, 90, 30, 16 + 270, 16 + 90, 16 + 30, 4 + 270, 4 + 90, 4 + 30, 1 + 270): 0%
Herbicidal action 28 DAT against Brachiaria plantaginea [4]: 0%
Herbicidal action 28 DAT against Digitaria horizontalis [5]: 0%
Herbicidal action against Abutilon theophrasti ([6]; 30 g of a.i./ha): 10%
Herbicidal action against Abutilon theophrasti ([6]; 90 g of a.i./ha): 10%
Herbicidal action against Abutilon theophrasti ([6]; 270 g of a.i./ha): 25%
Herbicidal action 14 DAT against Matricaria inodora ([7]; 90 g of a.i./ha): 50%
Herbicidal action 28 DAT against Matricaria inodora ([7]; (Z61) post-emergence, g of a.i./ha: 4, 1, 30, 4 + 30, 1 + 30): 0%
Herbicidal action 28 DAT against Matricaria inodora ([7]; (Z119) post-emergence, g of a.i./ha by row: 16, 4, 270, 90, 16 + 270, 4 + 90): 50%
